For 14 compounds, MIC results are on record in ChEMBL document CHEMBL4680134, “Structural optimization of natural product nordihydroguaretic acid to discover novel analogues as AcrB inhibitors” (Eur J Med Chem, 2020).

The target of experiment [1] is T1, Multidrug efflux pump subunit AcrB (Escherichia coli (strain K12)) (UniProt P31224).
T1 sequence (whole entry): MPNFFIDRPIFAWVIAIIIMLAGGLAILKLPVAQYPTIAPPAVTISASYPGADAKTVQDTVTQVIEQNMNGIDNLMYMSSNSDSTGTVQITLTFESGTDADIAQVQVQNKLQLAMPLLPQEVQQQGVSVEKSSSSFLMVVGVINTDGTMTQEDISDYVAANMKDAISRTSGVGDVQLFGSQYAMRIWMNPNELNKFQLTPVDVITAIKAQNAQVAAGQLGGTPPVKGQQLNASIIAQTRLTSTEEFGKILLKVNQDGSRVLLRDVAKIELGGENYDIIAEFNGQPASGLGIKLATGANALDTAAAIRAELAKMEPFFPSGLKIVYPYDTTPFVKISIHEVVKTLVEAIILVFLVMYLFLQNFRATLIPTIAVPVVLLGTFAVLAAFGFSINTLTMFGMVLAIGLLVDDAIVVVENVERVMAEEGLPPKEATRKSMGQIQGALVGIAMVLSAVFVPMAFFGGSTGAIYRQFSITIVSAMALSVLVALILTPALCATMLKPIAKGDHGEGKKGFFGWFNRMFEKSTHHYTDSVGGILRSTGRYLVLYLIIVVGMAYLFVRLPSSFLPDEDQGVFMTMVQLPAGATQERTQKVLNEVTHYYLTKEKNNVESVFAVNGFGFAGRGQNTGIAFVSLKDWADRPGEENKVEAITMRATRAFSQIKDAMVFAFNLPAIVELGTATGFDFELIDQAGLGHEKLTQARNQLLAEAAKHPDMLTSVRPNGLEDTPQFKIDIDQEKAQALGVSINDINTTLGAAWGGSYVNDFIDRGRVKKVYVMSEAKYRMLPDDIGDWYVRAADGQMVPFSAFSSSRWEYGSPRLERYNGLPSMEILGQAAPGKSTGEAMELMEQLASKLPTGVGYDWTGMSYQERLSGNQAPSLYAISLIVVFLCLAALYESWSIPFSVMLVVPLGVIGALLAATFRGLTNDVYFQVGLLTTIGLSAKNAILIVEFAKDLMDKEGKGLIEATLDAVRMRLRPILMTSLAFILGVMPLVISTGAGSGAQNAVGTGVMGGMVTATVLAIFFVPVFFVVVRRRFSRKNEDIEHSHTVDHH
Description: Inhibition of AcrB in Escherichia coli BW25113 assessed as potentiation of erythromycin induced antibacterial activity by measuring erythromycin MIC at 16 ug/ml measured after 18 hrs by checkerboard titration method (reference value: 64 ug/ml). Conditions: dose 16.0 µg/ml.

Experiment [2] deals with T1, Multidrug efflux pump subunit AcrB (Escherichia coli (strain K12)). Description: Inhibition of AcrB in Escherichia coli BW25113 assessed as potentiation of levofloxacin induced antibacterial activity by measuring levofloxacin MIC at 256 ug/ml measured after 18 hrs by checkerboard titration method (reference value: 0.06 ug/ml). Particulars: dose 256.0 µg/ml.
Experiment [3] shares this target. Description: Inhibition of AcrB in Escherichia coli BW25113 assessed as potentiation of levofloxacin induced antibacterial activity by measuring levofloxacin MIC at 64 ug/ml measured after 18 hrs by checkerboard titration method (reference value: 0.06 ug/ml). Particulars: dose 64.0 µg/ml.
Experiment [4] shares this target. Description: Inhibition of AcrB in Escherichia coli BW25113 assessed as potentiation of rifampicin induced antibacterial activity by measuring rifampicin MIC at 256 ug/ml measured after 18 hrs by checkerboard titration method (reference value: 16 ug/ml). Conditions: dose 256.0 µg/ml.
The target is the same in experiment [5]. Description: Inhibition of AcrB in Escherichia coli BW25113 assessed as potentiation of erythromycin induced antibacterial activity by measuring erythromycin MIC at 64 ug/ml measured after 18 hrs by checkerboard titration method (reference value: 64 ug/ml). Particulars: dose 64.0 µg/ml.
Experiment [6] has the same target. Description: Inhibition of AcrB in Escherichia coli BW25113 assessed as potentiation of levofloxacin induced antibacterial activity by measuring levofloxacin MIC at 32 ug/ml measured after 18 hrs by checkerboard titration method (reference value: 0.06 ug/ml). Conditions: dose 32.0 µg/ml.
The target is the same in experiment [7]. Description: Inhibition of AcrB in Escherichia coli BW25113 assessed as potentiation of erythromycin induced antibacterial activity by measuring erythromycin MIC at 256 ug/ml measured after 18 hrs by checkerboard titration method (reference value: 64 ug/ml). Particulars: dose 256.0 µg/ml.
Experiment [8] has the same target. Description: Inhibition of AcrB in Escherichia coli BW25113 assessed as potentiation of rifampicin induced antibacterial activity by measuring rifampicin MIC at 64 ug/ml measured after 18 hrs by checkerboard titration method (reference value: 16 ug/ml). Particulars: dose 64.0 µg/ml.
Experiment [9] has the same target. The experiment in a line: Inhibition of AcrB in Escherichia coli BW25113 assessed as potentiation of tetraphenylphosphonium induced antibacterial activity by measuring tetraphenylphosphonium MIC at 256 ug/ml measured after 18 hrs by checkerboard titration method (reference value: 1024 ug/ml). Conditions: dose 256.0 µg/ml.
The target is the same in experiment [10]. The experiment in a line: Inhibition of AcrB in Escherichia coli BW25113 assessed as potentiation of tetraphenylphosphonium induced antibacterial activity by measuring tetraphenylphosphonium MIC at 128 ug/ml measured after 18 hrs by checkerboard titration method (reference value: 1024 ug/ml). Particulars: dose 128.0 µg/ml.
Experiment [11] shares this target. The experiment in a line: Inhibition of AcrB in Escherichia coli BW25113 assessed as potentiation of erythromycin induced antibacterial activity by measuring erythromycin MIC at 128 ug/ml measured after 18 hrs by checkerboard titration method (reference value: 64 ug/ml). Particulars: dose 128.0 µg/ml.
The target is the same in experiment [12]. The experiment in a line: Inhibition of AcrB in Escherichia coli BW25113 assessed as potentiation of levofloxacin induced antibacterial activity by measuring levofloxacin MIC at 8 ug/ml measured after 18 hrs by checkerboard titration method (reference value: 0.06 ug/ml). Particulars: dose 8.0 µg/ml.
For experiment [13] the target is unchanged. The experiment in a line: Inhibition of AcrB in Escherichia coli BW25113 assessed as potentiation of rifampicin induced antibacterial activity by measuring rifampicin MIC at 8 ug/ml measured after 18 hrs by checkerboard titration method (reference value: 16 ug/ml). Conditions: dose 8.0 µg/ml.
Experiment [14] shares this target. The experiment in a line: Inhibition of AcrB in Escherichia coli BW25113 assessed as potentiation of erythromycin induced antibacterial activity by measuring erythromycin MIC at 8 ug/ml measured after 18 hrs by checkerboard titration method (reference value: 64 ug/ml). Particulars: dose 8.0 µg/ml.

`Oc1ccc(CCCCc2ccc(Br)cc2)cc1O`: the MIC in experiment [1] is 64 µg/mL; in [2], 0.06 µg/mL; in experiment [3] it was 0.06 µg/mL; in experiment [4], 16 µg/mL; in experiment [5], 64 µg/mL; in experiment [6], 0.06 µg/mL. Also, the MIC came out at 64 µg/mL in [7]; 16 µg/mL in experiment [8]; 512 µg/mL in [9]; 512 µg/mL in experiment [10]; 64 µg/mL in [11].
Turning to `Oc1ccc(CCCCCCCc2ccc(O)c(O)c2)cc1O`, the MIC in experiment [1] came to 64 µg/mL; in [2] it was 0.06 µg/mL; in experiment [3], 0.06 µg/mL; in experiment [4] it was 16 µg/mL; in [5] it was 64 µg/mL; in experiment [6] it was 0.06 µg/mL. Further, the MIC in experiment [7] came to 64 µg/mL; in experiment [8] it was 16 µg/mL; in [9], 512 µg/mL; in [10], 512 µg/mL; in experiment [11] it was 64 µg/mL.
Take `Oc1ccc(CCCCCCc2ccc(O)c(O)c2)cc1O`: the MIC was found to be 64 µg/mL in experiment [1]; 0.06 µg/mL in experiment [2]; 0.06 µg/mL in [3]; 16 µg/mL in experiment [4]; 64 µg/mL in [5]; 0.06 µg/mL in experiment [6]. For the same compound, the MIC came out at 64 µg/mL in [7]; 16 µg/mL in experiment [8]; 512 µg/mL in [9]; 512 µg/mL in experiment [10]; 64 µg/mL in experiment [11].
On to `Oc1ccc(CCCCCc2ccc(O)c(O)c2)cc1O`, for which the MIC in [1] amounted to 64 µg/mL; in [2], 0.06 µg/mL; in [3], 0.06 µg/mL; in experiment [4] it was 16 µg/mL; in experiment [5] it was 64 µg/mL; in [6], 0.06 µg/mL. In addition, the MIC was found to be 64 µg/mL in [7]; 16 µg/mL in experiment [8]; 32 µg/mL in experiment [9]; 512 µg/mL in experiment [10]; 64 µg/mL in [11].
Regarding `O=C(NCCc1ccc(O)c(O)c1)c1ccccc1O`, the MIC amounted to 64 µg/mL in [1]; 0.03 µg/mL in experiment [3]; 0.06 µg/mL in experiment [12]; 64 µg/mL in experiment [5]; 0.03 µg/mL in experiment [6]; 16 µg/mL in [8]. Besides, the MIC in experiment [13] came to 16 µg/mL; in experiment [10], 512 µg/mL; in experiment [14] it was 64 µg/mL; in experiment [11], 64 µg/mL.
Take `O=C(NCCc1ccc(O)c(O)c1)c1ccc(O)c(O)c1`: the MIC in [1] turned out to be 64 µg/mL; in experiment [3] it was 0.06 µg/mL; in experiment [12], 0.06 µg/mL; in experiment [5], 32 µg/mL; in [6], 0.06 µg/mL; in experiment [8], 16 µg/mL. Moreover, the MIC in experiment [13] was 16 µg/mL; in experiment [10] it was 512 µg/mL; in [14] it was 64 µg/mL; in [11] it was 32 µg/mL.
Consider `C[C@H](Cc1ccc(O)c(O)c1)[C@@H](C)Cc1ccc(O)c(O)c1` [MASOPROCOL], for which the MIC turned out to be 0.03 µg/mL in experiment [2]; 0.03 µg/mL in experiment [3]; 16 µg/mL in [4]; 64 µg/mL in [5]; 0.06 µg/mL in [6]; 32 µg/mL in [7]. Moreover, the MIC in [8] is 16 µg/mL; in [9], 64 µg/mL; in experiment [10], 128 µg/mL; in experiment [11], 64 µg/mL.
Consider `O=C(NCCc1ccc(O)c(O)c1)c1ccc(Br)cc1`, for which the MIC was found to be 64 µg/mL in experiment [1]; 0.06 µg/mL in experiment [3]; 0.06 µg/mL in [12]; 64 µg/mL in experiment [5]; 0.06 µg/mL in [6]; 16 µg/mL in [8]. For the same compound, the MIC amounted to 16 µg/mL in experiment [13], 1020 µg/mL in [10], 64 µg/mL in [14] and 32 µg/mL in [11].
For the compound `Oc1ccc(CCCCc2ccc(O)c(O)c2)cc1O`, the MIC is 64 µg/mL in experiment [1]; 0.06 µg/mL in experiment [2]; 0.06 µg/mL in experiment [3]; 16 µg/mL in experiment [4]; 64 µg/mL in experiment [5]; 0.06 µg/mL in experiment [6]. Also, the MIC amounted to 32 µg/mL in experiment [7]; 16 µg/mL in experiment [8]; 512 µg/mL in experiment [9]; 512 µg/mL in [10]; 32 µg/mL in experiment [11].
For the compound `Nc1cc(N)cc(C(=O)NCCc2ccc(O)c(O)c2)c1`, the MIC in experiment [1] was found to be 64 µg/mL; in [3] it was 0.06 µg/mL; in experiment [12] it was 0.06 µg/mL; in experiment [5] it was 32 µg/mL; in experiment [6] it was 0.06 µg/mL; in experiment [8] it was 16 µg/mL. In addition, the MIC in experiment [13] is 16 µg/mL; in experiment [10], 512 µg/mL; in [14], 64 µg/mL; in experiment [11] it was 32 µg/mL.
`O=C(NCCc1ccc(O)c(O)c1)c1ccc(C(F)(F)F)cc1`: the MIC in experiment [1] amounted to 64 µg/mL; in experiment [3] it was 0.06 µg/mL; in experiment [12] it was 0.06 µg/mL; in [5], 64 µg/mL; in experiment [6], 0.06 µg/mL; in [8], 16 µg/mL. Moreover, the MIC was determined as 16 µg/mL in experiment [13], 1020 µg/mL in experiment [10], 64 µg/mL in experiment [14] and 64 µg/mL in experiment [11].
For `Cc1ccc(C(=O)NCCc2ccc(O)c(O)c2)cc1`, the MIC came out at 32 µg/mL in experiment [1]; 0.06 µg/mL in experiment [12]; 0.06 µg/mL in experiment [6]; 16 µg/mL in experiment [8]; 16 µg/mL in experiment [13]; 64 µg/mL in [14].
As for `Oc1ccc(CCCCc2ccc(Cl)cc2)cc1O`, the MIC in experiment [1] came out at 64 µg/mL; in experiment [2], 0.06 µg/mL; in experiment [3], 0.06 µg/mL; in experiment [4] it was 16 µg/mL; in experiment [5], 64 µg/mL; in experiment [6] it was 0.06 µg/mL. For the same compound, the MIC came out at 64 µg/mL in experiment [7]; 16 µg/mL in [8]; 512 µg/mL in experiment [9]; 512 µg/mL in experiment [10]; 64 µg/mL in experiment [11].
`Oc1ccc(CCCCc2cc3cccc4ccc5cccc2c5c43)cc1O`: the MIC in experiment [1] amounted to 64 µg/mL; in [2] it was 0.06 µg/mL; in [3], 0.06 µg/mL; in experiment [4], 16 µg/mL; in [5] it was 32 µg/mL; in experiment [6], 0.06 µg/mL. The MIC in [7] came out at 32 µg/mL; in experiment [8] it was 16 µg/mL; in experiment [9], 256 µg/mL; in [10], 256 µg/mL; in experiment [11], 32 µg/mL.
